Data taken from patent US6737383B1, “Herbicidal oxadiazolidines” (priority 1999, dated 2004).

Experiments:
blackgrass = experiment: Test B pre/postemergence blackgrass; type: in vivo, Alopecurus myosuroides; conditions: Preemergence
In short: (§1)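 Response is a visual 0-to-10 score relative to untreated plants, where 0 means no effect and 10 means complete control, taken twelve to sixteen days after application. Treatments went onto soil at planting and onto foliage of 1- to 4-leaf plants, using a surfactant-containing non-phytotoxic solvent.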

duck salad = experiment: Test B flood test duck salad; type: in vivo, Heteranthera limosa
Method: (§2) At the same time, these crop and weed species were also treated with postemergence applications of test chemicals formulated in the same manner. Plants ranged in height from 2 to 18 cm (1- to 4-leaf stage) for postemergence treatments. Plant species in the flood test consisted of rice (Oryza sativa), smallflower flatsedge (Cyperus difformis), duck salad (Heteranthera limosa) and bamyardgrass (Echinochloa crus-galli) grown to the 2-leaf stage for testing. Treated plants and controls were maintained in a greenhouse for twelve to sixteen days, after which all species were compared to controls and visually evaluated. Plant response ratings, summarized in Table B, are based on a scale of 0 to 10 where 0 is no effect and 10 is complete control. A dash (−) response means no test result.

wheat = experiment: Test B pre/postemergence wheat; type: in vivo, Triticum aestivum; conditions: Preemergence, scale of 0 to 10 where 0 is no effect and 10 is complete control
In short: as §1

wild oat = experiment: Test B pre/postemergence wild oat; type: in vivo, Avena fatua; conditions: Preemergence, scale of 0 to 10 where 0 is no effect and 10 is complete control
In short: as §1

giant foxtail = experiment: Test B pre/postemergence giant foxtail; type: in vivo, Setaria faberii; conditions: Preemergence, scale of 0 to 10 where 0 is no effect and 10 is complete control
In short: as §1

velvetleaf = experiment: Test B pre/postemergence velvetleaf; type: in vivo, Abutilon theophrasti; conditions: Preemergence, scale of 0 to 10 where 0 is no effect and 10 is complete control
In short: as §1

purple nutsedge = experiment: Test B pre/postemergence purple nutsedge; type: in vivo, Cyperus rotundus; conditions: Preemergence, Rate 62 g/ha; scale of 0 to 10 where 0 is no effect and 10 is complete control
In short: as §1

corn = experiment: Test B pre/postemergence corn; type: in vivo, Zea mays; conditions: Preemergence
In short: as §1

rape = experiment: Test B pre/postemergence rape; type: in vivo, Brassica napus; conditions: Preemergence, scale of 0 to 10 where 0 is no effect and 10 is complete control
In short: as §1

smallflower flatsedge = experiment: Test B flood test smallflower flatsedge; type: in vivo, Cyperus difformis
Method: as §2

soybean = experiment: Test B pre/postemergence soybean; type: in vivo, Glycine max; conditions: Preemergence, scale of 0 to 10 where 0 is no effect and 10 is complete control
In short: as §1

sugar beet = experiment: Test B pre/postemergence sugar beet; type: in vivo, Beta vulgaris; conditions: Preemergence, scale of 0 to 10 where 0 is no effect and 10 is complete control
In short: as §1

cocklebur = experiment: Test B pre/postemergence cocklebur; type: in vivo, Xanthium strumarium; conditions: Preemergence
In short: as §1

pigweed = experiment: Test B pre/postemergence pigweed; type: in vivo, Amaranthus retroflexus; conditions: Preemergence, scale of 0 to 10 where 0 is no effect and 10 is complete control
In short: as §1

bamyardgrass = experiment: Test B flood test barnyardgrass; type: in vivo, Echinochloa crus-galli
Method: as §2

crabgrass = experiment: Test B pre/postemergence crabgrass; type: in vivo, Digitaria sanguinalis; conditions: Preemergence
In short: as §1

bedstraw = experiment: Test B pre/postemergence bedstraw; type: in vivo, Galium aparine; conditions: Preemergence
In short: as §1

morningglory = experiment: Test B pre/postemergence morningglory; type: in vivo, Ipomoea hederacea; conditions: Preemergence, scale of 0 to 10 where 0 is no effect and 10 is complete control
In short: as §1

surinam grass = experiment: Test B pre/postemergence surinam grass; type: in vivo, Brachiaria decumbens; conditions: Preemergence
In short: as §1

[1] = Rate 62 g/ha, scale of 0 to 10 where 0 is no effect and 10 is complete control
[2] = Rate 125 g/ha, scale of 0 to 10 where 0 is no effect and 10 is complete control
[3] = Rate 250 g/ha, scale 0 to 10 (0 no effect, 10 complete control)
[4] = Rate 500 g/ha, scale of 0 to 10 where 0 is no effect and 10 is complete control
[5] = Rate 62 g/ha, flood test species, Pre-emergence, visual evaluation after twelve to sixteen days
[6] = Rate 125 g/ha, under heading Pre-emergence, flood test species, visual evaluation after twelve to sixteen days
[7] = Rate 250 g/ha, Pre-emergence (flood test species), scale 0 to 10, 0 is no effect, 10 is complete control
[8] = Rate 500 g/ha, Pre-emergence section of Table B, 0 to 10 scale (0 no effect, 10 complete control)

SMILES: CC(C)N(C(=O)n1oc(=O)n(C(C)C2CCC2)c1=O)c1ccc(Cl)cc1 (centres unmarked) [Compound 701]
- Blackgrass plant response rating (blackgrass; [1]): 0
- Plant response rating, Blackgrass (blackgrass; [2]): 2
- Plant response rating, Blackgrass (blackgrass; [3]): 2
- Plant response rating, Blackgrass (blackgrass; [4]): 6
- Plant response rating, Ducksalad (0 to 10 scale, 0 is no effect, 10 is complete control) (duck salad; [5]): 0
- Ducksalad plant response rating (0 to 10 scale, 0 is no effect, 10 is complete control) (duck salad; [6]): 0
- Ducksalad plant response rating (duck salad; [7]): 0
- Ducksalad plant response rating (duck salad; [8]): 3
- Wheat plant response rating (wheat; Rate 62 g/ha): 0
- Plant response rating, Wheat (wheat; Rate 125 g/ha): 0
- Wild oats plant response rating (wild oat; Rate 62 g/ha): 0
- Plant response rating, Wild oats (wild oat; Rate 125 g/ha): 0
- Giant foxtail plant response rating (giant foxtail; Rate 62 g/ha): 6
- Plant response rating, Giant foxtail (giant foxtail; Rate 125 g/ha): 10
- Velvetleaf plant response rating (velvetleaf; Rate 62 g/ha): 0
- Plant response rating, Velvetleaf (velvetleaf; Rate 125 g/ha): 0
- Nutsedge plant response rating (purple nutsedge): 0
- Corn plant response rating (corn; [1]): 0
- Plant response rating, Corn (corn; [2]): 0
- Plant response rating, Corn (corn; [3]): 0
- Rape plant response rating (rape; Rate 62 g/ha): 0
- Plant response rating, Rape (rape; Rate 125 g/ha): 0
- Plant response rating, S. Flatsedge (0 to 10 scale, 0 is no effect, 10 is complete control) (smallflower flatsedge; [5]): 0
- S. Flatsedge plant response rating (0 to 10 scale, 0 is no effect, 10 is complete control) (smallflower flatsedge; [6]): 0
- S. Flatsedge plant response rating (smallflower flatsedge; [7]): 0
- S. Flatsedge plant response rating (smallflower flatsedge; [8]): 0
- Soybean plant response rating (soybean; Rate 62 g/ha): 0
- Plant response rating, Soybean (soybean; Rate 125 g/ha): 0
- Sugarbeets plant response rating (sugar beet; Rate 62 g/ha): 0
- Plant response rating, Sugarbeets (sugar beet; Rate 125 g/ha): 0
- Cocklebur plant response rating (cocklebur; [1]): 0
- Plant response rating, Cocklebur (cocklebur; [2]): 0
- Plant response rating, Cocklebur (cocklebur; [3]): 0
- Plant response rating, Cocklebur (cocklebur; [4]): 0
- Redroot pigweed plant response rating (pigweed; Rate 62 g/ha): 0
- Plant response rating, Redroot pigweed (pigweed; Rate 125 g/ha): 0
- Plant response rating, Barnyardgrass (0 to 10 scale, 0 is no effect, 10 is complete control) (bamyardgrass; [5]): 0
- Barnyardgrass plant response rating (0 to 10 scale, 0 is no effect, 10 is complete control) (bamyardgrass; [6]): 0
- Barnyardgrass plant response rating (bamyardgrass; [7]): 0
- Barnyardgrass plant response rating (bamyardgrass; [8]): 0
- Crabgrass plant response rating (crabgrass; [1]): 0
- Plant response rating, Crabgrass (crabgrass; [2]): 10
- Plant response rating, Crabgrass (crabgrass; [3]): 10
- Bedstraw plant response rating (bedstraw; [1]): 0
- Plant response rating, Bedstraw (bedstraw; [2]): 0
- Plant response rating, Bedstraw (bedstraw; [3]): 0
- Plant response rating, Bedstraw (bedstraw; [4]): 0
- Morningglory plant response rating (morningglory; Rate 62 g/ha): 0
- Plant response rating, Morningglory (morningglory; Rate 125 g/ha): 0
- B. signalgrass plant response rating (surinam grass; [1]): 0
- Plant response rating, B. signalgrass (surinam grass; [2]): 0
- Plant response rating, B. signalgrass (surinam grass; [3]): 0
- Plant response rating, B. signalgrass (surinam grass; [4]): 0
